# From the supplement of paper PMC10307832
# Key:
# Experiment in all cases: relative viability (nuclei count vs DMSO), 5 days (fraction); higher = more cells survive
# Erlotinib + Alpelisib = compound: C#Cc1cccc(Nc2ncnc3cc(OCCOC)c(OCCOC)cc23)c1 [Erlotinib] + Cc1nc(NC(=O)N2CCC[C@H]2C(N)=O)sc1-c1ccnc(C(C)(C)C(F)(F)F)c1 [Alpelisib] (partner 2 µM)
# Method in brief: (§1)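 Lung cancer cell lines in 1536-well plates were dosed by pin tool the day after seeding, either with one drug alone or with a fixed anchor-drug dose plus five library-drug doses (not always all listed) in √10 steps. After 5 days, cells were fixed and their nuclei stained in one step (final 0.05% Triton X-100, 1% formaldehyde, 1 ug/ml Hoechst), then counted on 4× images. Relative viability is the nuclei count in treated wells divided by that in vehicle wells. Values are medians of duplicate plates.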
# AT9283 + Pemetrexed = compound: O=C(Nc1c[nH]nc1-c1nc2ccc(CN3CCOCC3)cc2[nH]1)NC1CC1 [AT9283] + Nc1nc2[nH]cc(CCc3ccc(C(=O)N[C@@H](CCC(=O)O)C(=O)O)cc3)c2c(=O)[nH]1 [Pemetrexed] (partner 0.2 µM)
# Method in brief: as §1
# Erlotinib + Vorinostat = compound: C#Cc1cccc(Nc2ncnc3cc(OCCOC)c(OCCOC)cc23)c1 [Erlotinib] + O=C(CCCCCCC(=O)Nc1ccccc1)NO [Vorinostat] (partner 1 µM)
# Method in brief: as §1
# AT9283 + Navitoclax = compound: O=C(Nc1c[nH]nc1-c1nc2ccc(CN3CCOCC3)cc2[nH]1)NC1CC1 [AT9283] + CC1(C)CCC(c2ccc(Cl)cc2)=C(CN2CCN(c3ccc(C(=O)NS(=O)(=O)c4ccc(N[C@H](CCN5CCOCC5)CSc5ccccc5)c(S(=O)(=O)C(F)(F)F)c4)cc3)CC2)C1 [Navitoclax] (partner 0.5 µM)
# Method in brief: as §1
# AT9283 + OSI-027 = compound: O=C(Nc1c[nH]nc1-c1nc2ccc(CN3CCOCC3)cc2[nH]1)NC1CC1 [AT9283] + COc1cccc2cc(-c3nc([C@H]4CC[C@H](C(=O)O)CC4)n4ncnc(N)c34)[nH]c12 [OSI-027] (partner 0.5 µM)
# Method in brief: as §1
Cell Line,relative viability (Erlotinib + Alpelisib; first compound 0.02 µM),relative viability (Erlotinib + Alpelisib; first compound 0.2 µM),relative viability (Erlotinib + Alpelisib; first compound 0.6325 µM),relative viability (Erlotinib + Alpelisib; first compound 2 µM),relative viability (AT9283 + Pemetrexed; first compound 0.003 µM),relative viability (AT9283 + Pemetrexed; first compound 0.03 µM),relative viability (AT9283 + Pemetrexed; first compound 0.09487 µM),relative viability (AT9283 + Pemetrexed; first compound 0.3 µM),relative viability (Erlotinib + Vorinostat; first compound 0.02 µM),relative viability (Erlotinib + Vorinostat; first compound 0.2 µM),relative viability (Erlotinib + Vorinostat; first compound 0.6325 µM),relative viability (Erlotinib + Vorinostat; first compound 2 µM),relative viability (AT9283 + Navitoclax; first compound 0.003 µM),relative viability (AT9283 + Navitoclax; first compound 0.03 µM),relative viability (AT9283 + Navitoclax; first compound 0.09487 µM),relative viability (AT9283 + Navitoclax; first compound 0.3 µM),relative viability (AT9283 + OSI-027; first compound 0.003 µM),relative viability (AT9283 + OSI-027; first compound 0.03 µM),relative viability (AT9283 + OSI-027; first compound 0.09487 µM),relative viability (AT9283 + OSI-027; first compound 0.3 µM)
HCC-366,0.46,0.25,0.402,0.209,0.169,0.2,0.101,0.067,0.41,0.363,0.369,0.222,1.1,0.842,0.191,0.0248,0.834,0.845,0.048,0.0995
HCC-827,0.3,0.171,0.172,0.148,0.281,0.247,0.236,0.207,0.228,0.186,0.121,0.132,0.995,0.879,0.449,0.326,0.694,0.647,0.597,0.181
HOP-62,,1.05,1.05,0.977,0.439,0.192,0.144,0.153,0.714,0.492,0.759,0.716,1.07,0.857,0.088,0.106,0.868,0.792,0.53,0.253
LC-2-ad,0.909,0.843,0.834,0.686,0.258,0.253,0.219,0.164,0.731,0.794,0.75,0.589,0.506,0.232,0.0899,0.101,0.766,0.476,0.249,0.229
LCLC-97TM1,0.218,,0.316,0.259,0.19,0.134,0.0995,0.0907,,0.503,1.01,0.596,0.335,0.117,0.107,0.144,0.539,0.288,0.0798,0.108
LK-2,0.932,0.976,1.33,1.03,0.196,0.135,0.136,0.105,0.264,0.454,0.419,0.304,0.803,0.493,0.169,0.168,0.2,0.151,0.156,0.143
LOU-NH91,0.539,0.495,0.527,0.512,0.406,0.385,0.331,0.351,0.803,0.713,0.785,0.703,0.735,0.605,0.37,0.283,0.697,0.698,0.599,0.388
LU99A,0.644,0.478,0.562,0.333,0.162,0.184,0.139,0.112,0.505,0.507,0.49,0.468,0.766,0.243,0.142,0.151,0.297,0.233,0.166,0.155
LXF-289,1.08,1,0.976,0.913,0.827,0.861,0.215,0.128,0.824,0.762,0.66,0.758,0.93,0.665,0.123,0.133,0.81,0.769,0.166,0.0735
NCI-H23,0.763,0.593,0.816,0.634,0.675,0.749,0.296,0.238,0.704,0.502,0.666,0.485,0.741,0.538,0.423,0.174,0.666,0.674,0.344,0.281
NCI-H322M,0.693,0.745,0.589,0.335,0.605,0.438,0.443,0.482,0.832,0.716,0.688,0.546,1.27,0.802,0.731,0.436,0.396,0.306,0.472,0.464
NCI-H460,0.585,0.415,0.492,0.399,0.0566,0.0638,0.0674,0.0587,0.832,0.734,0.969,0.601,1.23,0.987,0.0587,0.0315,0.678,0.81,0.248,0.0423
NCI-H520,0.932,0.934,1.17,,0.702,0.302,0.303,0.198,0.718,0.693,0.83,0.71,1.17,0.34,0.236,0.23,0.256,0.198,0.185,0.172
NCI-H596,0.444,0.456,0.492,0.376,0.512,0.574,0.529,0.462,0.683,0.636,0.606,0.583,1.05,0.839,0.689,0.481,0.704,0.779,0.665,0.476
NCI-H647,0.955,1.18,,1.02,0.168,0.127,0.0669,0.0634,0.735,0.485,0.556,0.565,1.03,0.542,0.125,0.0857,0.782,0.524,0.173,0.132
NCI-H838,1,0.962,1.09,0.855,0.227,0.21,0.182,0.153,0.821,0.694,0.703,0.684,1.32,0.333,0.239,0.213,0.471,0.496,0.178,0.195

Cell Line,relative viability (Erlotinib + Alpelisib; first compound 0.02 µM),relative viability (Erlotinib + Alpelisib; first compound 0.2 µM),relative viability (Erlotinib + Alpelisib; first compound 0.6325 µM),relative viability (Erlotinib + Alpelisib; first compound 2 µM),relative viability (AT9283 + Pemetrexed; first compound 0.003 µM),relative viability (AT9283 + Pemetrexed; first compound 0.03 µM),relative viability (AT9283 + Pemetrexed; first compound 0.09487 µM),relative viability (AT9283 + Pemetrexed; first compound 0.3 µM),relative viability (Erlotinib + Vorinostat; first compound 0.02 µM),relative viability (Erlotinib + Vorinostat; first compound 0.2 µM),relative viability (Erlotinib + Vorinostat; first compound 0.6325 µM),relative viability (Erlotinib + Vorinostat; first compound 2 µM),relative viability (AT9283 + Navitoclax; first compound 0.003 µM),relative viability (AT9283 + Navitoclax; first compound 0.03 µM),relative viability (AT9283 + Navitoclax; first compound 0.09487 µM),relative viability (AT9283 + Navitoclax; first compound 0.3 µM),relative viability (AT9283 + OSI-027; first compound 0.003 µM),relative viability (AT9283 + OSI-027; first compound 0.03 µM),relative viability (AT9283 + OSI-027; first compound 0.09487 µM),relative viability (AT9283 + OSI-027; first compound 0.3 µM)
NCI-H1355,,0.742,0.685,0.518,0.989,1.02,0.719,0.301,0.668,0.633,0.602,0.521,1.07,0.806,0.46,0.158,0.399,0.436,0.276,0.221
NCI-H1395,1.34,1.08,1.08,1.07,0.799,0.764,0.322,0.34,0.776,0.674,0.808,0.652,1.21,0.716,0.393,0.421,0.523,0.541,0.356,0.363
NCI-H1437,0.924,0.965,,0.854,0.306,0.298,0.264,0.225,,0.873,0.818,0.667,1.17,0.832,0.265,0.178,0.933,0.848,0.669,0.206
NCI-H1651,1.02,0.873,1.05,0.944,0.48,0.506,0.528,0.378,0.533,0.541,0.564,0.462,1.09,0.956,0.489,0.231,0.753,0.714,0.568,0.334
NCI-H1666,0.901,0.631,0.504,0.348,0.775,0.818,0.718,0.612,,0.963,0.775,0.78,1.08,0.885,0.432,0.315,0.782,0.811,0.636,0.483
NCI-H1734,0.704,0.61,0.84,0.602,0.384,0.404,0.326,0.228,0.954,,0.938,0.81,0.839,0.318,0.131,0.127,0.634,0.331,0.237,0.201
NCI-H1755,1.01,0.933,0.937,0.872,0.438,0.415,0.361,0.301,0.827,0.762,0.772,0.716,0.988,0.876,0.482,0.281,0.697,0.72,0.396,0.537
NCI-H1793,0.747,0.549,0.516,0.579,0.876,1.07,0.355,0.306,0.841,0.36,0.551,0.441,0.533,0.429,0.231,0.164,0.278,0.367,0.188,0.206
NCI-H1915,1.09,,1.09,,0.547,0.431,0.326,0.254,0.536,0.529,0.508,0.485,0.657,0.72,0.504,0.174,0.619,0.619,0.239,0.196
NCI-H1944,0.708,0.562,0.595,0.504,0.627,0.5,0.232,0.191,0.497,0.388,0.48,0.35,1.03,0.865,0.652,0.235,0.391,0.291,0.201,0.229
NCI-H1975,0.717,0.696,0.535,0.454,0.295,0.282,0.27,0.276,0.722,0.726,0.701,0.58,1.11,1.18,0.971,0.282,0.726,0.706,0.671,0.344
NCI-H1993,0.73,0.644,0.647,0.739,0.565,0.514,0.52,0.389,0.811,0.724,0.633,0.461,0.872,0.905,0.586,0.466,0.545,0.528,0.487,0.486
NCI-H2009,1.24,1.16,1.17,1.13,1.03,0.983,0.713,0.243,0.758,0.713,0.775,0.667,1.26,0.681,0.391,0.284,0.652,0.511,0.182,0.101
NCI-H2023,0.64,0.525,0.453,0.401,0.214,0.199,0.126,0.102,0.754,0.475,0.645,0.47,1.04,0.71,0.383,0.119,0.389,0.456,0.148,0.104
NCI-H2085,0.935,0.81,0.673,0.645,0.959,0.9,0.537,0.441,0.78,0.649,0.724,0.535,1.05,0.815,0.671,0.244,0.896,0.731,0.553,0.321
